Values joined by “and” are separate entries in the source; they are usually repeats but may differ in a detail not shown here. Equal values may be shown once. Read-outs that look alike come from different tables or passages of the source.
Experiments:
[1] = apparently through calcium antagonism; cited from earlier work
[2] = system: CCRF-CEM cells; assay: Intracellular accumulation of [3H]vinblastine in CCRF-CEM cells; type: cell-based, human; conditions: 30 μM
Protocol: (§1) *Cells were preloaded with [^3 H]
(§2) times (or without wash) with 100 ml cold medium to remove extracellular
(§3) with or without a reverse prenyl compound or an MDRreversing agent. Cells
(§4) were then separated from radioactive medium by microfuge oillayer method.
(§5) Extracellular space counts carried down # by cells (^3 HInulin space
(§6) were subtracted from the total radioactive counts.

[3] = Cytotoxicity (XTT, 72 hr) in HCT116 cells; conditions: human
Protocol: All drug exposures were for 72 hr and cytotoxicity was measured by XTT tetrazolium dye assay.

[4] = system: CCRF-CEM cells; assay: Two drug combination study of vinblastine and 5-N-acetylardeemin on CCRF-CEM, 72 hr, XTT assay; type: cell-based; conditions: Homo sapiens, Table 2, drug alone, read-out: Dm (median-effect concentration)
Excerpt: CCRF-CEM Cell Line at 72-HR Exposure Time. Based on XTT

[5] = system: CCRF-CEM cells; assay: Accumulation of VP-16 in CCRF-CEM cells preloaded with [3H]VP-16; conditions: Homo sapiens, 0.5 h, read-out: increase of intracellular accumulation of VP-16
[6] = system: CCRF-CEM/VLB-100 cells; assay: Intracellular accumulation of [3H]vinblastine in CCRF-CEM/VLB-100 cells; type: cell-based, human; conditions: 30 μM
Protocol: as §1, §2, §3, §4, §5, §6

[7] = system: DC-3F/ADII cells; assay: cells; conditions: Mesocricetus auratus, DC3F
[8] = system: P388/DX tumor; assay: Combination therapy of adriamycin & 5-N-acetyl-ardeemin or verapamil in B6D2F1 mice bearing P388/DX tumor;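 also: male BDF mice implanted intraperitoneally with P388/DX cells, 10^6 per mouse, dosed from day 1 on a QDX4, QWX2 schedule, five mice per dose group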; conditions: 5NAc-Ard. 70 mg/kg
Excerpt: ^a Male BDF mice were inoculated P388/DX, 10^6 cells/mouse, i.p.
starting day 1, QDX4, QWX2. There were five mice at every dose and ten

[9] = system: KBV-1 (vinblastine resistant) tumor cell lines; conditions: in words; cited from earlier work
[10] = system: DC-3F hamster lung cells; assay: Cytotoxicity toward DC-3F hamster lung cells; conditions: Mesocricetus auratus, DC3F
[11] = system: vinblastine-resistant CCRF-CEM cells (CCRF-CEM/VBL100); assay: Two drug combination study of vinblastine and 5-N-acetylardeemin on vinblastine-resistant CCRF-CEM, 72 hr, XTT assay; type: cell-based, human; design: dose of drug at FA (drug alone): unit not given here; conditions: for Dose reduction index / dose of drug at FA (drug alone): Table 3
[12] = system: CCRF-CEM cells; assay: Influx of [3H]VP-16 in CCRF-CEM cells; type: cell-based, human; conditions: Homo sapiens, CCRF-CEM, 0.5 h, read-out: increase of VP-16 accumulation
[13] = system: P388/O tumor; assay: Combination therapy of adriamycin & 5-N-acetyl-ardeemin or verapamil in B6D2F1 mice bearing P388/O tumor; conditions: 5NAc-Ardm 70 mg/kg;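 also: male BDF mice carrying P388/O given intraperitoneally, dosing begun on day 1 on a QDX4, QWX2 schedule, five animals per dose level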
Excerpt: ^a Male BDF mice were inoculated P388/O, 10^6 cells/mouse, i.p. a
starting day 1, QDX4, QWX2.

[14] = system: CCRF-CEM/VM-1 cells; assay: Cytotoxicity toward VM-26-resistant CCRF-CEM/VM-1 cells (mutated Topo II gene); type: cell-based, human; conditions: Homo sapiens, CCRF-CEM, read-out: IC50 of reversing agent
[15] = system: DC-3F/ADII cells
[16] = system: P388/DX leukemic cells; assay: Drug combination of adriamycin and 5-N-acetyl-ardeemin against P388/DX cell growth (XTT); type: cell-based; conditions: drug alone
Excerpt: | microplate, 25,000 cell/well, N = 2.

[17] = system: P388/DX; assay: Survival time evaluation for BDF mice bearing P388/DX; conditions: for survival time: individual mice
[18] = system: vinblastine-resistant CCRF-CEM cells (CCRF-CEM/VBL100); assay: Two drug combination study of vinblastine and 5-N-acetylardeemin on vinblastine-resistant CCRF-CEM, 72 hr, XTT assay; type: cell-based, human
Excerpt: Vinblastine-resistant CCRF-CEM Cell Line at 72-HR Exposure Time.
Based on XTT Assay. (large-scale study)

[19] = system: DC-3F/ADX cells; assay: Cytotoxicity toward DC-3F/ADX cells; type: cell-based, hamster
[20] = Solubility; type: physicochemical; conditions: at concentrations higher than […]
[21] = system: CCRF-CEM cells; assay: Cytotoxicity / growth inhibition of CCRF-CEM leukemic cells; conditions: Homo sapiens
[22] = system: CCRF/VM-1 cells; assay: Intracellular accumulation of VP-16 in CCRF/VM-1 cells; conditions: Homo sapiens, 0.5 h, read-out: increase of VP-16 accumulation
[23] = system: P388/0; assay: Survival time evaluation for BDF mice bearing P388/0; conditions: for survival time: individual mice
Excerpt: ^a Male BDF mice were inoculated with p388/0, 10E6 cells/mouse, I.P.

[24] = system: CCRF-CEM/VBL100 cells; assay: cells; conditions: Homo sapiens
[25] = system: P388 leukemic cells; assay: Drug combination of adriamycin and 5-N-acetyl-ardeemin against P388 cell growth (XTT); conditions: Mus musculus, P388, drug alone
Excerpt: microplate, 15,000 cell/well, N = 2. Platting cells on day 1, add drugs o
day 2 and XTT assay on day 5.

[26] = read-out: IC50 for inhibiting cell growth, Table 7, DC-3F/SDII

C=CC(C)(C)[C@@]12C[C@H]3C(=O)N4[C@@H](C[C@@]5(C(C)(C)C=C)c6ccccc6N[C@@H]45)C(=O)N3[C@@H]1Nc1ccccc12 [Amauromine, amauromine]
vasodilator activity [1]: vasodilator

C=CC(C)(C)C12CC3c4nc5ccccc5c(=O)n4C(C)C(=O)N3C1N(C(C)=O)c1ccccc12 (centres unmarked) [5-N-Acetylardeemin]
[3H]vinblastine accumulation ([2]; washed): 32.73 fmole/10^3 cells
[3H]vinblastine accumulation ([2]; without wash): 37.45 fmole/10^3 cells
MNTC at 72 h [3]: ≥ 2200 nM
IC50 [4]: 18.8 µM
fold induction at 30 µM [5]: 3.9
[3H]vinblastine accumulation ([6]; washed): 12.78 fmole/10^3 cells
[3H]vinblastine accumulation ([6]; without wash): 35.44 fmole/10^3 cells
IC50 ([7]; read-out: IC50 (B), DC-3F/ADII): 16.8 µM
IC50 [7, 26]: 1.07 µM
% ILS [8]: 0%
MST [8]: 7.55 days
Days survived ([8]; individual mice 1-5): 6.5 days and 7.25 days and 8.0 days
reversal of multidrug resistance [9]: one of the most potent known agents for reversal of multidrug resistance
IC50 ([10]; read-out: IC50 (A), mean ± spread, mean of the determinations): 7.51 ± 2.58 µM
IC50 ([10]; read-out: IC50 for inhibiting cell growth, Table 7, DC-3F): 3.74 µM
IC50 ([10]; relative cytotoxicity, DC-3F): 5.06 µM
IC50 ([11]; Homo sapiens, CCRF-CEM, Table 3, drug alone, read-out: Dm (median-effect concentration)): 19.4 µM
Dose reduction index ([11]; FA .9843): 55.57
dose of drug at FA (drug alone) ([11]; FA .9843): 555.6899
Dose reduction index ([11]; FA .9861): 61.43
dose of drug at FA (drug alone) ([11]; FA .9861): 614.2689
Dose reduction index ([11]; FA .9898): 79.19
dose of drug at FA (drug alone) ([11]; FA .9898): 791.8969
activation at 30 µM [12]: 66%
% ILS [13]: +2%
MST [13]: 7.75 days
Days survived ([13]; individual mice 1-5): 8.5 days and 7.0 days and 8.25 days and 6.5 days
IC50 [14]: 39.4 µM
(B)/(A) ([15]; IC50 ratio DC-3F/ADII to DC-3F, * collaterally sensitive): 2.2 X
IC50 [15, 26]: 1590 nM
IC50 [16]: 65.9 µM
% ILS ([17]; 5N-acetylardeemin 3.33 mg/kg): 5%
MST ([17]; 5N-acetylardeemin 3.33 mg/kg): 7.63
survival time ([17]; 5N-acetylardeemin 3.33 mg/kg): 6.5 and 7.0 and 8.0 and 9.0
% ILS ([17]; 5N-acetylardeemin 10 mg/kg): 2%
MST ([17]; 5N-acetylardeemin 10 mg/kg): 7.42
survival time ([17]; 5N-acetylardeemin 10 mg/kg): 7.0 and 7.25 and 8.0
% ILS ([17]; 5N-acetylardeemin 30 mg/kg): -7%
MST ([17]; 5N-acetylardeemin 30 mg/kg): 6.75
survival time ([17]; 5N-acetylardeemin 30 mg/kg): 6.5 and 7.0
dose reduction in combination ([18]; 1:2000 ratio, at 98.4% inhibition): 55 fold
IC50 ([18]; Homo sapiens, CCRF-CEM, Table 4 (large-scale study), drug alone, read-out: Dm (median-effect concentration)): 29.8 µM
IC50 ([19]; DC3F/ADX, DC-3F/ADX): 3.69 µM
(C)/(A) ([19]; IC50 ratio DC-3F/ADX to DC-3F, * collaterally sensitive): 0.49 X
solubility [20]: diminished solubility
IC50 ([21]; Table 6, CCRF-CEM): 17.2 µM
IC50 ([21]; human leukemic CCRF-CEM cells): 29.8 µM
IC50 ([21]; read-out: IC50 of reversing agent, Table 6B, CCRF-CEM): 29.2 µM
fold induction at 30 µM [22]: 1.95
% ILS ([23]; 5N-acetylardeemin 3.33 mg/kg): -2%
MST ([23]; 5N-acetylardeemin 3.33 mg/kg): 7.25
survival time ([23]; 5N-acetylardeemin 3.33 mg/kg): 6.0 and 7.0 and 8.0
% ILS ([23]; 5N-acetylardeemin 10 mg/kg): -10%
MST ([23]; 5N-acetylardeemin 10 mg/kg): 6.67
survival time ([23]; 5N-acetylardeemin 10 mg/kg): 60. and 6.5 and 7.5
% ILS ([23]; 5N-acetylardeemin 30 mg/kg): -16%
MST ([23]; 5N-acetylardeemin 30 mg/kg): 6.25
survival time ([23]; 5N-acetylardeemin 30 mg/kg): 6.0 and 6.5
IC50 ([24]; Table 6, CCRF-CEM/VBL): 6.99 µM
IC50 ([24]; read-out: IC50 of reversing agent, Table 6B, CCRF-CEM/VBL): 18.1 µM
IC50 [25]: 43.7 µM

— patent publication US6147076A, “Analogues of N-acetylardeemin, method of preparation and uses thereof” (priority 1996, dated 2000)
